# Measurements as given in patent US20120309683A1, “USE OF […] ADENYLATE CYCLASE-ACTIVATING POLYPEPTIDE (PACAP) AND PACAP ANALOGS AS ADJUNCTIVE TREATMENTS WITH INHIBITORS OF CALCINEURIN OR INHIBITORS OF THE […] TARGET OF RAPAMYCIN (mTOR) COMPLEXES” (The Administrators of the Tulane Educational Fund, priority 2010, published 2012).
# Where no end group is shown, it is not given here. [ ]: non-standard residue; d: D form. The star is where a group is joined. Palmitoyl = CCCCCCCCCCCCCCCC(=O)*; Aib = CC(C)(N)C(=O)O
# Key:
# [1] = rat, in vivo, iv; cited from earlier work
# [2] = system: light-chain immunoglobulin-secreting human multiple myeloma cells; assay: Proliferation of multiple myeloma cells with sirolimus, bromodeoxyuridine incorporation; format: cell-based; conditions: multiple myeloma cells with sirolimus, 10^−9 M to 10^−6 M peptide, 24-hour incubation
# Description: The light-chain immunoglobulin-secreting human multiple myeloma cells were cultured in RPMI 1640 medium supplemented with 10% non-inactivated fetal bovine serum and 0.05 mM 2-mercaptoethanol. The effects of PACAP38, PACAP27 and PACAP analogs on myeloma cell proliferation were assessed by determining incorporation of bromodeoxyuridine into DNA during cell division. The number of myeloma cells approximately doubled during the 24-hour incubation period in the absence of treatment with PACAP-like peptides. Four different concentrations, ranging from 10^−9 M to 10^−6 M, were tested for PACAP38, PACAP27 and each of the PACAP analogs. Each value represents the mean plus/minus the standard error of four determinations. **p<0.01 and *p<0.05 compared to the cells treated only with sirolimus.
# The effects of PACAP38, PACAP27 and PACAP analogs on human cell proliferation were assessed by determining incorporation of bromodeoxyuridine into DNA during cell division. […] At the highest dose (10^−6 M), PACAP38 inhibited the proliferation by more than 50%.
# [3] = system: Jurkat human T-lymphocyte cells; assay: Proliferation of Jurkat cells, bromodeoxyuridine incorporation; format: cell-based; conditions: mitogen-stimulated Jurkat cells, 24 hours
# Description: The Jurkat human T-lymphocyte cells were cultured in RPMI 1640 medium supplemented with 10% heat-inactivated fetal calf serum. The Jurkat cells were stimulated with mitogens (1 mg/ml of PHA and 50 ng/ml of PMA).
# (§1) However, when Jurkat cells were stimulated with PHA and PMA, large quantities of interleukin-2 could be detected in the medium (FIG. 9). […] At the highest dose (10^−5 M), PACAP38 inhibited the proliferation of the Jurkat cells by more than 50%.
# [4] = system: HK-2 human kidney cells (human renal proximal tubule epithelial cells); assay: Tacrolimus-induced loss of viability of HK-2 cells, lactate dehydrogenase in intact cells; format: cell-based; conditions: various concentrations of peptide added to medium
# Description: The HK-2 human kidney cells were cultured in Keratinocyte-Serum Free Medium supplemented with recombinant epidermal growth factor and bovine pituitary extract. […] Each value represents the mean plus/minus the standard error of five determinations. **p<0.01 and *p<0.05 compared to the cells treated only with tacrolimus.
# [5] = system: Jurkat human T-lymphocyte cells; assay: Mitogen-stimulated secretion of interleukin-2 from Jurkat cells; format: cell-based; conditions: PHA and PMA stimulated Jurkat cells, 24 hours
# Description: The Jurkat human T-lymphocyte cells were cultured in RPMI 1640 medium supplemented with 10% heat-inactivated fetal calf serum. The Jurkat cells were stimulated with the mitogens phytohemagglutinin (PHA, 1 mg/ml) and phorbol 12-myristate 13-acetate (PMA, 50 ng/ml). […] Each value represents the mean plus/minus the standard error of eight determinations. **p<0.01 and *p<0.05 compared to the cells treated only with the mitogens.
# as §1
# [6] = system: Jurkat human T-lymphocyte cells; assay: Inhibition by cyclosporine A of IL-2 secretion from Jurkat cells, enhancement by peptides; format: cell-based; conditions: peptide added on top of cyclosporine, 24 hours
# Description: The Jurkat human T-lymphocyte cells were cultured in RPMI 1640 medium supplemented with 10% heat-inactivated fetal calf serum. The Jurkat cells were stimulated with mitogens (1 mg/ml of PHA and 50 ng/ml of PMA). […] Each value represents the mean plus/minus the standard error of eight determinations. **p<0.01 and *p<0.05 compared to the cells treated only with the mitogens.
# However, when Jurkat cells were stimulated with PHA and PMA, large quantities of interleukin-2 could be detected in the medium (FIG. 11).
# [7] = system: NCI-H838 human non-small cell lung cancer cells; conditions: nude mice; cited from earlier work
# [8] = system: MCF-7 human breast cancer cells; conditions: nude mice; cited from earlier work
# [9] = system: PC-3 human prostate cancer cells; conditions: nude mice; cited from earlier work
# [10] = system: HK-2 human kidney cells (human renal proximal tubule epithelial cells); assay: Sirolimus-induced apoptotic cell death of HK-2 cells, histone-associated DNA fragmentation; format: cell-based; conditions: 100 ng/ml sirolimus for 24 hours, HK-2 cells
# Description: The HK-2 human kidney cells were cultured in Keratinocyte-Serum Free Medium supplemented with recombinant epidermal growth factor and bovine pituitary extract. The dose-dependent inhibitory effect of PACAP38 on apoptotic cell death was assessed by the quantitative determination of cytoplasmic histone-associated DNA-fragmentation (mono- and oligonucleosomes) after exposure to 100 ng/ml of sirolimus for 24 hours. Each value represents the mean plus/minus the standard error of eight determinations. **p<0.01 and *p<0.05 compared to the cells treated only with sirolimus.
molecule,measurement,setting,value
[^125I]-PACAP38,half-life in the bloodstream,[1],5 to 6 min
[Aib^2]PACAP38 (H[Aib]DGIFTDSYSRYRKQMAVKKYLAAVLGKRYKQRVKNK; ends and bridges not checked),rate of proliferation of the human B-lymphocyte cell line,[2],significant dose-dependent inhibition
same,rate of proliferation of the human T-lymphocyte cell line,[3],significant dose-dependent inhibition
"[D-Ser^2,Lys^38-palmitoyl]PACAP38 (H[dS]DGIFTDSYSRYRKQMAVKKYLAAVLGKRYKQRVKNK(Palmitoyl); not fully specified (C-terminus))",loss of viable human renal proximal tubule epithelial cells caused by tacrolimus,[4],significant dose-dependent reduction
"[Ala^16,Ala^17,D-Lys^38]PACAP38 (HSDGIFTDSYSRYRKAAAVKKYLAAVLGKRYKQRVKN[dK]; ends and bridges not checked)",loss of viable human renal proximal tubule epithelial cells caused by tacrolimus,[4],significant dose-dependent reduction
[Lys^34]PACAP38 (HSDGIFTDSYSRYRKQMAVKKYLAAVLGKRYKQKVKNK; ends and bridges not checked),rate of proliferation of the human B-lymphocyte cell line,[2],significant dose-dependent inhibition
[D-Ser^2]PACAP38 (H[dS]DGIFTDSYSRYRKQMAVKKYLAAVLGKRYKQRVKNK; not fully specified (C-terminus)),loss of viable human renal proximal tubule epithelial cells caused by tacrolimus,[4],significant dose-dependent reduction
same,mitogen-induced secretion of interleukin-2 into the medium,[5],large significant inhibition
same,rate of proliferation of the human T-lymphocyte cell line,[3],significant dose-dependent inhibition
same,cyclosporine-induced inhibition of interleukin-2 secretion,[6],small dose-dependent enhancement
[Ala^22]PACAP38 (HSDGIFTDSYSRYRKQMAVKKALAAVLGKRYKQRVKNK; ends and bridges not checked),rate of proliferation of the human B-lymphocyte cell line,[2],significant dose-dependent inhibition
"PACAP(6-38) (FTDSYSRYRKQMAVKKYLAAVLGKRYKQRVKNK; ends and bridges not checked; UniProt P18509 137-169, looked up, fragment) [a PACAP/VIP receptor antagonist]",growth of xenografts,[7],inhibited the growth
same,growth of xenografts,[8],inhibited the growth
same,growth of xenografts,[9],inhibited the growth
PACAP27 (HSDGIFTDSYSRYRKQMAVKKYLAAVL-NH2; listed as Homo sapiens),rate of proliferation of the human B-lymphocyte cell line,[2],significant dose-dependent inhibition
VIP (HSDAVFTDNYTRLRKQMAVKKYLNSILN-NH2; listed as Homo sapiens),loss of viable human renal proximal tubule epithelial cells caused by tacrolimus,[4],significant dose-dependent reduction
same,mitogen-induced secretion of interleukin-2 into the medium,[5],large significant inhibition
same,rate of proliferation of the human T-lymphocyte cell line,[3],significant dose-dependent inhibition
same,cyclosporine-induced inhibition of interleukin-2 secretion,[6],small dose-dependent enhancement
"CO[C@H]1C[C@@H]2CC[C@@H](C)[C@@](O)(O2)C(=O)C(=O)N2CCCC[C@H]2C(=O)O[C@H]([C@H](C)C[C@@H]2CC[C@@H](O)[C@H](OC)C2)CC(=O)[C@H](C)/C=C(\C)[C@@H](O)[C@@H](OC)C(=O)[C@H](C)C[C@H](C)/C=C/C=C/C=C/1C [sirolimus, reference compound]",apoptotic cell death,[10],large significant increase in apoptotic cell death
